Values of other authors as cited in patent US20130203858A1, “Fast-Dissolving Solid Pharmaceutical Form for Treating Bacterial Infections” (Nanocore Biotecnologia S.A., priority 2010, published 2013).

Legend:
[1] = WO2009/061780 composition in the absence of PVP

CS(=O)(=O)c1ccc([C@@H](O)[C@@H](CF)NC(=O)C(Cl)Cl)cc1 [florfenicol, Florfenicol]
portion of the drug solubilized in water [1]: about 40% | solubility in water: about 1.2 mg/mL | portion of the drug that solubilises in water (without addition of surfactants): about 20%
